The record followed here is article PMC5755735, “Discovery of indolylpiperazinylpyrimidines with dual-target profiles at adenosine A2A and dopamine D2 receptors for Parkinson's disease treatment” (PLoS ONE, 2018).

Where “and” joins values, the source holds several entries; their conditions need not be identical. Identical values can stand only once.

One may read the Ki as a dissociation constant, usually derived from enzyme kinetics or from competition with a known ligand.

In data set [1] the test system is LRRK2 G2019S flies. The experiment in a line: fly viability / survival of mutant LRRK2 G2019S flies. In kind it is in vivo. The conditions noted are these: for effect on fly viability / mortality: concentrations in the 50–100 μM range; for effect on fly viability: ligand concentration 500 μM. The procedure: Studies have shown that expression of the LRRK2-G2019S mutantion in Drosophila caused more severe PD phenotypes, including locomotor dysfunction, loss of dopaminergic neurons, and early mortality, relative to that of wild-type LRRK2 [31]. Prior to evaluating compounds 5 and 6 in the Drosophila model of PD, the effect of compound concentrations on fly viability was studied. At the ligand concentration of 500 μM, both compounds were lethal to G2019S flies (data not shown). […] As there was no remarkable difference in the survival rate between 50 and 100 μM for compound 5, this range was selected for compound 5 for the subsequent climbing assay and quantification of DA neurons.
Fly lines for 24B-Gal4 (muscle specific), ddc-Gal4 (dopaminergic neuron-specific), elav-Gal4 (pan-neuronal), UAS-mito-GFP, and UAS-dAMPK-KA were purchased from Bloomington Drosophila Stock Center. The parkin-null mutant flies were kind gifts from Chung J. and Cho K. S. (Korea Advanced Institute of Science and Technology, Daejeon, Korea). To generate transgenic mutant LRRK2 G2019S, cDNA containing a myc-tag at the C terminus was inserted into pUAST plasmid and microinjected into Drosophila embryos (BestGene). Sequencing of cloned products was performed before they were microinjected into the embryos. Climbing assays were performed according to a previously described method. Briefly, 20 female adult flies from each group were randomly selected after being anaesthetised and placed in a vertical plastic column (length 25 cm; diameter 1.5 cm). Age-matched normal flies were used as controls. After a 2-hour recovery period from CO2 exposure, flies were gently tapped to the bottom of the column, and the number of flies that reached the top of column at 1 min was counted. Results are presented as mean ± SEM of the scores obtained from three independent experiments. To study the effect of compounds, flies were fed with cornmeal-agar medium supplemented with the DMSO solution of the compound immediately at post-eclosion (for parkin-null flies) or at day 35 onwards (for LRRK2 mutant flies) for a period of 25 days. Immunohistochemical analysis of whole-mount adult fly brains were prepared according to published protocols and stained with rabbit anti-TH (1:300, Pel-Freez Biologicals) as primary antibody. The stained samples were viewed using an Olympus Fluoview Upright Confocal Microscope. DA neurons were quantified according to previously published method. The size of mito-GFP puncta was measured using the ImageJ program and expressed as mean ± SD (n ≥ 10 DA neurons per experimental group). Statistical significance for all the quantitative data obtained were analyzed using one-way ANOVA with Tukey’s test HSD post hoc test (*p < 0.05, **p < 0.01).

Data set [2] has as its system Salmonella strains TA98 and TA100. The experiment in a line: Ames mutagenicity test. It counts as cell-based, Salmonella typhimurium. The note with it: 10 μM and 100 μM; TA98 and TA100, +S9 and –S9. Here is the method: In the toxicity studies, in vitro assays for mutagenicity and cytotoxicity were performed on compounds 5 and 6. These compounds were investigated for their mutagenic potential through the Ames assay. Two Salmonella strains TA98 and TA100 with pre-existing mutations (His^-) were selected. Both strains are unable to synthesize histidine (one of the growth requirements for these strains) and therefore cannot form colonies on the agar plate.
Together with the compounds, the Salmonella strains were incubated in the presence (+S9) and absence (–S9) of a metabolizing system “S9 mix” consisting of 9000 g supernatant fraction of rat liver microsomes, nicotinamide adenine dinucleotide phosphate (NADP) and cofactors. Exogenous “S9 mix” was included due to the lack of CYP metabolizing enzymes in Salmonella typhimurium. In the assay, agar plates +S9 and–S9 were used to detect pro-mutagens for cases where the native chemical was not mutagenic but its metabolites were mutagens, and direct-acting mutagens, respectively. […]
In vitro mutagenicity was performed using a modified Ames Test protocol according to manufacturer’s instructions (MolTox). […] The cultures were then measured for absorbance with a UV spectrophotometer at 660 nm and to be used at a density of approximately 1.0 to 1.2 absorbance units. […] Images of colonies were captured and counted with the aid of ImageJ software.
(In the Ames test, an excess of revertant colonies over the control signals mutagenicity.)

Data set [3] has as its target human A2A receptors expressed in CHO cells (Homo sapiens, UniProt P29274). The experiment in a line: competition binding at human A2A adenosine receptors ([3H]NECA displacement). The note with it: for Ki: displacement of [3H]NECA, CHO cells, 95% confidence limits, n = 3–6, read-out: Ki hA2A; for hA1/hA2A / hA3/hA2A: selectivity ratio of Ki values. Here is the method: A two-step procedure was adopted to prepare membrane for radioligand binding from cells stably transfected with human adenosine receptor subtypes (hA1, hA2A and hA3 expressed on CHO cells). Firstly, cell fragments and nuclei were removed by using low-speed centrifugation (1,000 g for 10 min). After that, crude membrane fraction from supernatant was then sedimented at 100,000 g for 30 min. The membrane pellet was subsequently re-suspended in the specific binding buffer, frozen in liquid nitrogen and stored at -80°C. For measurement of adenylyl cyclase activity in the hA2B receptors, one-step centrifugation procedure was used; the homogenate was sedimented for 30 min at 54,000 g. The so-obtained crude membrane pellet was re-suspended in 50 mM Tris/HCl, pH 7.4 and used for the adenylyl cyclase assay immediately.
Non-specific binding was determined using theophylline 1 mM. […] Non-specific binding was determined using N^6-R-phenylisopropyl adenosine (R-PIA) 100 μM. ^41 The binding of [^3H]HEMADO to CHO cells transfected with hA3 adenosine receptors was carried out as described earlier. […] Non-specific binding was determined using R-PIA 100 μM.
The assay mixture was then filtered through the built-in filter at the bottom of the 96-well microplate filtration system (Millipore Multiscreen MAFC) and washed three times with 200 μL of cold buffer. After addition of 20 μL of scintillator to the dried filter plates, the filter bound radioactivity was counted on a Wallac Micro-Beta counter. All Ki values were calculated by non-linear curve fitting with the program SCTFIT [45].
Background: In a radioligand displacement assay an active substance lowers the binding of a labelled ligand.

Chain of human A2A receptors expressed in CHO cells (P29274 whole entry, the tested form may be a part): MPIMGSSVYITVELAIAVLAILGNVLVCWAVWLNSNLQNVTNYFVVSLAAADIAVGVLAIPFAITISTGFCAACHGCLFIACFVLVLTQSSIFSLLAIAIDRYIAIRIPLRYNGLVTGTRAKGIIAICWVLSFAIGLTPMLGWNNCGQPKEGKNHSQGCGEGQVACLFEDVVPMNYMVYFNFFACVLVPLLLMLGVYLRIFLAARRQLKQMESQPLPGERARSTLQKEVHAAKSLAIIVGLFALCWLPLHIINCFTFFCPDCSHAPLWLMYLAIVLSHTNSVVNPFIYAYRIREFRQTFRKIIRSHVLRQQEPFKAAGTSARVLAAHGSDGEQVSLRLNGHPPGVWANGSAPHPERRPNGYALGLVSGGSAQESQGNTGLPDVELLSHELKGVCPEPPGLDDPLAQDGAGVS

For `Cc1cc(C)nc(N2CCN(C(=O)c3c[nH]c4ccccc34)CC2)n1` [Compound 5, 3‐[4‐(4,6‐Dimethylpyrimidin‐2‐yl)piperazine‐1‐carbonyl]‐1H‐indole], in data set [1], the “effect on fly viability / mortality” value is recorded as “able to delay the G2019S fly mortality” and the “effect on fly viability” value is on record as “lethal”. For the same compound, the “mutagenicity (number of His+ revertants)” value in data set [2] is recorded as “no significant mutagenicity”. In data set [3], the Ki is 11.2 µM and 8.7 to 11.2 µM; the hA1/hA2A is given as more than 9; the hA3/hA2A is recorded as more than 9.

Regarding `Cc1cc(C)nc(N2CCN(C(=O)Cc3c(C)[nH]c4ccccc34)CC2)n1` [Compound 6, 1‐[4‐(4,6‐Dimethylpyrimidin‐2‐yl)piperazin‐1‐yl]‐2‐(2‐methyl‐1H‐indol‐3‐yl)ethan‐1‐one], in data set [1], the “effect on fly viability / mortality” value is “toxicity” and the “effect on fly viability” value was “lethal”. The “mutagenicity (number of His+ revertants)” value in data set [2] is listed as “no significant mutagenicity”. Further, in data set [3], the Ki stood at 8.71 µM, the hA1/hA2A was more than 11 and the hA3/hA2A was more than 11.
